Where “and” joins values, the source holds several entries; their conditions need not be identical. Identical values can stand only once.

The experiment has as its system refractory or relapsed diffuse large B-Cell lymphoma (DLBCL) patients. As to the kind of experiment: Clinical trial of lenalidomide in refractory or relapsed DLBCL patients: best response, PFS, OS. Format: in vivo, human. The text has this: A clinical trial was formed with four arms, each arm containing 25 patients. One arm contained patients classified as presenting germinal center B-cell-like DLBCL subtypes receiving lenalidomide, a second arm contained patients classified as presenting germinal center B-cell-like DLBCL subtypes receiving another therapy selected by the investigator, a third arm contained patients classified as presenting activated B-cell-like DLBCL subtypes receiving lenalidomide, and a fourth arm contained patients classified as presenting activated B-cell-like DLBCL subtypes receiving another therapy selected by the investigator. The patients in the four arms of the clinical trial received treatment until disease progression.
For purposes of this exploratory analysis, a subset of the clinical data associated to each patient comprised the therapy arm, Revlimid (REV) or control drug (CON), and their corresponding response to the drug in both categorical variable {complete response (CR), partial response (PR), establish disease (SD), progression disease (PD) and Death} and continuous variables as progression free survival (PFS) and overall (OS), unit weeks. It also includes the predicted DLBCL sub-type (ABC/GCB) and other demographic data. […]

On to `Nc1cccc2c1CN(C1CCC(=O)NC1=O)C2=O` (centres unmarked) [lenalidomide, 3-(4-amino-1-oxo-1,3-dihydro-isoindol-2-yl)-piperidine-2,6-dione], for which the “progression free survival (PFS)” value runs as follows: (individual Revlimid-arm DLBCL patients whose baseline FF profile had a non-zero estimated proportion of NK-cells) 27 weeks and 31.9 weeks and 32.4 weeks and 85.3 weeks; (one lenalidomide-treated DLBCL patient with low B aIgM proportion who died shortly after starting treatment) less than 3 weeks.

The values above are taken from US20160312292A1, “METHODS FOR TREATING HEMATOLOGICAL CANCERS AND THE USE OF BIOMARKERS AS A PREDICTOR OF CLINICAL SENSITIVITY TO IMMUNODULATORY THERAPIES” (CELGENE CORPORATION, priority 2013, published 2016).
